Reference: patent US20240199587A1, “HETEROCYCLIC COMPOUNDS” (Hoffmann-La Roche Inc., priority 2021, published 2024)

These molecules were tested against T1, MAGL (Homo sapiens, UniProt Q99685) (assay: 2-AG assay (MAGL inhibitory activity, hydrolysis of 2-arachidonoylglycerol to arachidonic acid followed by mass spectrometry)). Details: 8 μM 2-arachidonoylglycerol, 15 min pre-incubation, 30 min incubation at RT, RapidFire MS readout.
T1 sequence (Q99685 1-303): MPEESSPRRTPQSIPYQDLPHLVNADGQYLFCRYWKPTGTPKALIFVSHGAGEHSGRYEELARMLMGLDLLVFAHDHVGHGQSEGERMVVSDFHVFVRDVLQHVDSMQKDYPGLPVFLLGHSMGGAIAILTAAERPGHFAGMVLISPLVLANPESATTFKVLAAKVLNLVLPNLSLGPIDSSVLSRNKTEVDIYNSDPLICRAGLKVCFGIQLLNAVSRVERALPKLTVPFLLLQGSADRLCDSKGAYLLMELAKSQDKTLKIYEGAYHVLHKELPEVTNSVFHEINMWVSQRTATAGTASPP
Assay type: biochemical
Procedure, shortened: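 Human MAGL ([…] final) pre-incubated 15 min at RT with compound in 50 mM TRIS, 1 mM EDTA, 0.01% Tween-20, 2.5% DMSO; 8 μM 2-AG then added for 30 min at RT. Acetonitrile quench with d8-arachidonic acid; arachidonic acid measured by RapidFire SPE–MS/MS, activity from arachidonic acid/d8 ratio.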

SMILES	IC50
CS(=N)(=O)c1cc(F)ccc1CC1CC2(C1)CN(C(=O)N1CC3(CC(n4cnc(C5CC5)n4)C3)C1)C2 (stereo not drawn) [Example 416, [6-(3-cyclopropyl-1,2,4-triazol-1-yl)-2-azaspiro[3.3]heptan-2-yl]-[6-[[4-fluoro-2-(methylsulfonimidoyl)phenyl]methyl]-2-azaspiro[3.3]heptan-2-yl]methanone]	1.12 nM
O=C(N1C[C@H]2C[C@H](Oc3cc(C(F)(F)F)c(F)cc3F)C[C@H]2C1)N1CC2(CC(n3cnc(C4CC4)n3)C2)C1 [Example 132, [6-(3-cyclopropyl-1,2,4-triazol-1-yl)-2-azaspiro[3.3]heptan-2-yl]-[rac-(3aS,6aR)-5-[2,4-difluoro-5-(trifluoromethyl)phenoxy]-3,3a,4,5,6,6a-hexahydro-1H-cyclopenta[c]pyrrol-2-yl]methanone]	1.7 nM
O=C(N1CC(c2nc(CC3(C(F)(F)F)CC3)no2)C1)N1CC2(CC(n3cnc(C4CC4)n3)C2)C1 [Example 2, [6-(3-cyclopropyl-1,2,4-triazol-1-yl)-2-azaspiro[3.3]heptan-2-yl]-[3-[3-[[1-(trifluoromethyl)cyclo-propyl]methyl]-1,2,4-oxadiazol-5-yl]azetidin-1-yl]methanone]	25.7 nM
O=C(N1CC2(CC(CNC3(C(F)(F)F)COC3)C2)C1)N1CC2(CC(n3cnc(C4CC4)n3)C2)C1 [Example 465, [6-(3-cyclopropyl-1,2,4-triazol-1-yl)-2-azaspiro[3.3]heptan-2-yl]-[6-[[[3-(trifluoromethyl)oxetan-3-yl]amino]methyl]-2-azaspiro[3.3]heptan-2-yl]methanone]	3.17 nM
O=C(N1CC2(CC(Oc3cncc(C(F)(F)F)c3)C2)C1)N1CC2(CC(n3cnc(C4CC4)n3)C2)C1 [Example 81, (6-(3-cyclopropyl-1H-1,2,4-triazol-1-yl)-2-azaspiro[3.3]heptan-2-yl)(6-((5-(trifluoromethyl)pyridin-3-yl)oxy)-2-azaspiro[3.3]heptan-2-yl)methanone]	1.8 nM
O=C(N1CC(/C=C/c2cccc(F)c2)C1)N1CC2(CC(n3cnc(C4CC4)n3)C2)C1 [Example 509, [6-(3-cyclopropyl-1,2,4-triazol-1-yl)-2-azaspiro[3.3]heptan-2-yl]-[3-[(E)-2-(3-fluorophenyl)vinyl]azetidin-1-yl]methanone]	40.9 nM
CNC(=O)C(c1ccc(F)cc1)N1CCN(C(=O)N2CC3(CC(n4cnc(C5CC5)n4)C3)C2)CC1 (stereo not drawn) [Example 340, 2-[4-[6-(3-cyclopropyl-1,2,4-triazol-1-yl)-2-azaspiro[3.3]heptane-2-carbonyl]piperazin-1-yl]-2-(4-fluorophenyl)-N-methyl-acetamide]	3190 nM
O=C(N1CC(OCc2ccc(F)cc2Cl)C1)N1CC2(CC(n3cnc(C4CC4)c3)C2)C1 [Example 109, [3-[(2-chloro-4-fluoro-phenyl)methoxy]azetidin-1-yl]-[6-(4-cyclopropylimidazol-1-yl)-2-azaspiro[3.3]heptan-2-yl]methanone]	63.5 nM
O=C(N1CC2(CC(Cc3ccc(F)c(F)c3)C2)C1)N1CC2(CC(n3cnc(C4CC4)n3)C2)C1 [Example 50, (6-(3-cyclopropyl-1H-1,2,4-triazol-1-yl)-2-azaspiro[3.3]heptan-2-yl)(6-(3,4-difluorobenzyl)-2-azaspiro[3.3]heptan-2-yl)methanone]	0.3 nM
CC(C)(C)c1nc(C23CC(C(=O)N4CC5(CC(n6cnc(C7CC7)n6)C5)C4)(C2)C3)no1 [Example 163, [3-(5-tert-butyl-1,2,4-oxadiazol-3-yl)-1-bicyclo[1.1.1]pentanyl]-[6-(3-cyclopropyl-1,2,4-triazol-1-yl)-2-azaspiro[3.3]heptan-2-yl]methanone]	192 nM
O=C(N1CC2(CC(n3cnc(C4(O)CC4)n3)C2)C1)N1CC2(CC[C@H](Cc3cccc(S(=O)(=O)C(F)(F)F)c3)C2)C1 [Example 361, [6-[3-(1-hydroxycyclopropyl)-1,2,4-triazol-1-yl]-2-azaspiro[3.3]heptan-2-yl]-[(6R)-6-[[3-(trifluoromethylsulfonyl)phenyl]methyl]-2-azaspiro[3.4]octan-2-yl]methanone]	0.21 nM
COc1cc(C(F)(F)F)ccc1CC1CC2(C1)CN(C(=O)N1CC3(CC(n4cnc(C5CC5)n4)C3)C1)C2 [Example 40, [6-(3-cyclopropyl-1,2,4-triazol-1-yl)-2-azaspiro[3.3]heptan-2-yl]−[6-[[2-methoxy-4-(trifluoromethyl)phenyl]methyl]-2-azaspiro[3.3]heptan-2-yl]methanone]	0.03 nM
CC(C)(C)c1nc(-c2ccc(C(=O)N3CC4(CC(n5ncc6c5CCOC6)C4)C3)cc2)no1 [Example 18, [4-(5-tert-butyl-1,2,4-oxadiazol-3-yl)phenyl]-[6-(6,7-dihydro-4H-pyrano[4,3-c]pyrazol-1-yl)-2-azaspiro[3.3]heptan-2-yl]methanone]	3730 nM
CC(C)(C)c1nc(-c2ccc(C(=O)N3CC4(CC(n5cc(C#N)cn5)C4)C3)cc2)no1 [compound 21, 1-[2-[4-(5-tert-butyl-1,2,4-oxadiazol-3-yl)benzoyl]-2-azaspiro[3.3]heptan-6-yl]pyrazole-4-carbonitrile]	3370 nM

Further lines, results first:

IC50	SMILES
20.8 nM	O=C(N1CC2(CC(n3cnc(C4CC4)n3)C2)C1)C12CCC(COCC3(C(F)(F)F)CC3)(CC1)CC2 [Example 155, [6-(3-cyclopropyl-1,2,4-triazol-1-yl)-2-azaspiro[3.3]heptan-2-yl]−[4-[[1-(trifluoromethyl)cyclopropyl]methoxymethyl]-1-bicyclo[2.2.2]octanyl]methanone]
4.3 nM	O=C(N1C[C@H]2C[C@H](Oc3ccc(OC(F)(F)F)cc3)C[C@H]2C1)N1CC2(CC(n3cnc(C4CC4)n3)C2)C1 [Example 134, [6-(3-cyclopropyl-1,2,4-triazol-1-yl)-2-azaspiro[3.3]heptan-2-yl]-[rac-(3aS,6aR)-5-[4-(trifluoromethoxy)phenoxy]-3,3a,4,5,6,6a-hexahydro-1H-cyclopenta[c]pyrrol-2-yl]methanone]
4.5 nM	COC(=O)c1ccccc1CN1CC2(C1)CN(C(=O)N1CC3(CC(n4cnc(C5CC5)n4)C3)C1)C2 [Example 229, methyl 2-[[2-[6-(3-cyclopropyl-1,2,4-triazol-1-yl)-2-azaspiro[3.3]heptane-2-carbonyl]-2,6-diazaspiro[3.3]heptan-6-yl]methyl]benzoate]
0.4 nM	O=C(N1CCC([C@H](c2ccc(F)cc2)c2nc(C3CC3)no2)CC1)N1CC2(CC(n3cnc(C4CC4)n3)C2)C1 [Example 197, [4-[(R)-(3-cyclopropyl-1,2,4-oxadiazol-5-yl)-(4-fluorophenyl)methyl]-1-piperidyl]-[6-(3-cyclopropyl-1,2,4-triazol-1-yl)-2-azaspiro[3.3]heptan-2-yl]methanone]
13.9 nM	CC1(O)CN(c2ccc(C3CN(C(=O)N4CC5(CC(n6cnc(C7CC7)n6)C5)C4)C3)cn2)C1 [Example 504, [6-(3-cyclopropyl-1,2,4-triazol-1-yl)-2-azaspiro[3.3]heptan-2-yl]-[3-[6-(3-hydroxy-3-methyl-azetidin-1-yl)-3-pyridyl]azetidin-1-yl]methanone]
8.8 nM	O=C(N1CC2(CC(n3cnc(C4CC4)n3)C2)C1)N1CC2(C1)CN(S(=O)(=O)c1c(F)cc(F)cc1F)C2 [Example 242, [6-(3-cyclopropyl-1,2,4-triazol-1-yl)-2-azaspiro[3.3]heptan-2-yl]-[2-(2,4,6-trifluorophenyl)sulfonyl-2,6-diazaspiro[3.3]heptan-6-yl]methanone]
129 nM	NC(=O)[C@H](c1ccc(F)cc1)N1CCN(C(=O)N2CC3(CC(n4cnc(C5CC5)n4)C3)C2)CC1 [Example 306, (2S)-2-[4-[6-(3-cyclopropyl-1,2,4-triazol-1-yl)-2-azaspiro[3.3]heptane-2-carbonyl]piperazin-1-yl]-2-(4-fluorophenyl)acetamide]
20 nM	CC(F)(F)c1ccc(C2CN(C(=O)N3CC4(CC(n5cnc(C6CC6)n5)C4)C3)C2)cc1 [Example 35]
76.2 nM	NC(=O)C(c1ccc(F)cc1)C1CCN(C(=O)N2CC3(CC(n4cnc(C5CC5)n4)C3)C2)CC1 (single isomer, unassigned) [Example 291]
1400 nM	CNC(=O)[C@@H](c1ccc(F)cc1)N1CCN(C(=O)N2CC3(CC(n4cnc(C5CC5)n4)C3)C2)CC1 [Example 335, (2R)-2-[4-[6-(3-cyclopropyl-1,2,4-triazol-1-yl)-2-azaspiro[3.3]heptane-2-carbonyl]piperazin-1-yl]-2-(4-fluorophenyl)-N-methyl-acetamide]
89 nM	CC(=O)Nc1ccc(S(=O)(=O)N2CC3(CN(C(=O)N4CC5(CC(n6cnc(C7CC7)n6)C5)C4)C3)C2)cc1 [Example 295, N-[4-[[6-[6-(3-cyclopropyl-1,2,4-triazol-1-yl)-2-azaspiro[3.3]heptane-2-carbonyl]-2,6-diazaspiro[3.3]heptan-2-yl]sulfonyl]phenyl]acetamide]
2.22 nM	CS(=N)(=O)c1ccc(CC2CC3(C2)CN(C(=O)N2CC4(CC(n5cnc(C6CC6)n5)C4)C2)C3)cc1 (single isomer, unassigned) [Example 442, [6-(3-cyclopropyl-1,2,4-triazol-1-yl)-2-azaspiro[3.3]heptan-2-yl]-[6-[[4-(methylsulfonimidoyl)phenyl]methyl]-2-azaspiro[3.3]heptan-2-yl]methanone]
6.8 nM	N#Cc1ccccc1S(=O)(=O)N1CC2(CN(C(=O)N3CC4(CC(n5cnc(C6CC6)n5)C4)C3)C2)C1 [Example 240]
